Experimental data as given in US11312727B1, “Macrocyclic flu endonuclease inhibitors” (Janssen BioPharma, Inc., priority 2018, dated 2022).
pEC50: −log10 of the molar value.

Experiments:
in vitro = conditions: human, CC50, uninfected A549 cells, CellTiter-Glo
[1] = test system: Influenza strain A549 A/WSN/33 (H1N1); test: microbe, parasite or virus in culture; type: cell-based; conditions: Influenza A virus, A549, 20 h, A549 cells, influenza A/WSN/33 (H1N1), 20 hours incubation; read-out: A549_A(H1N1) EC50

Row | SMILES | CC50 (in vitro) [nM] | pEC50 [1]
1 | O=C1c2c(O)c(=O)ccn2N2CN1C/C=C\COc1c(ccc(Cl)c1Cl)[C@@H]2c1ccccc1 (single isomer, unassigned) [Compound 103B, (18*S,Z)-3,4-dichloro-12-hydroxy-18-phenyl-6,9-dihydro-18H-10,17-methanobenzo[b]pyrido[1,2-f][1]oxa[5,6,9]triazacyclotridecine-11,13-dione] | > 200 | 8.51
2 | O=C1c2c(O)c(=O)ccn2N2CN1C/C=C\COc1c(F)cccc1[C@@H]2c1cccc(F)n1 (single isomer, unassigned) [Compound 104A, (18*R,*Z)-4-fluoro-18-(6-fluoropyridin-2-yl)-12-hydroxy-6,9-dihydro-18H-10,17-methanobenzo[b]pyrido[1,2-f][1]oxa[5,6,9]triazacyclotridecine-11,13-dione] | > 200 | 7.97
3 | O=C1c2c(O)c(=O)ccn2N2CN1C/C=C\COc1c(F)cccc1[C@H]2c1cccc(F)n1 (single isomer, unassigned) [Compound 104B, (18*S,*Z)-4-fluoro-18-(6-fluoropyridin-2-yl)-12-hydroxy-6,9-dihydro-18H-10,17-methanobenzo[b]pyrido[1,2-f][1]oxa[5,6,9]triazacyclotridecine-11,13-dione] | > 200 | < 7.00
4 | CC[C@H]1C/C=C/COc2c(F)cccc2[C@@H](c2ccccc2)N2CN1C(=O)c1c(O)c(=O)ccn12 (single isomer, unassigned) [Compound 105AA, (2*R,9*S,*E)-9-ethyl-33-fluoro-15-hydroxy-2-phenyl-12,13,14,16-tetrahydro-11H-4-oxa-1(1,3)-pyrido[2,1-f][1,2,4]triazina-3(1,2)-benzenacyclononaphan-6-ene-14,16-dione] | > 200 | 8.66
5 | CC[C@@H]1C/C=C/COc2c(F)cccc2[C@@H](c2ccccc2)N2CN1C(=O)c1c(O)c(=O)ccn12 (single isomer, unassigned) [Compound 105AB, (2*R,9*R,*E)-9-ethyl-33-fluoro-15-hydroxy-2-phenyl-12,13,14,16-tetrahydro-11H-4-oxa-1(1,3)-pyrido[2,1-f][1,2,4]triazina-3(1,2)-benzenacyclononaphan-6-ene-14,16-dione] | > 200 | 8.72
6 | CC[C@H]1C/C=C/COc2c(F)cccc2[C@H](c2ccccc2)N2CN1C(=O)c1c(O)c(=O)ccn12 (single isomer, unassigned) [Compound 105BA, (2*S,9*S,*E)-9-ethyl-33-fluoro-15-hydroxy-2-phenyl-12,13,14,16-tetrahydro-11H-4-oxa-1(1,3)-pyrido[2,1-f][1,2,4]triazina-3(1,2)-benzenacyclononaphan-6-ene-14,16-dione] | > 200 | < 7.00
7 | CC[C@@H]1C/C=C/COc2c(F)cccc2[C@H](c2ccccc2)N2CN1C(=O)c1c(O)c(=O)ccn12 (single isomer, unassigned) [Compound 105BB, (2*S,9*R,*E)-9-ethyl-33-fluoro-15-hydroxy-2-phenyl-12,13,14,16-tetrahydro-11H-4-oxa-1(1,3)-pyrido[2,1-f][1,2,4]triazina-3(1,2)-benzenacyclononaphan-6-ene-14,16-dione] | > 200 | < 7.00
8 | O=C1c2c(O)c(=O)ccn2N2CN1C1(/C=C/COc3ccccc3[C@H]2c2ccccc2)CCC1 (single isomer, unassigned) [Compound 106A, (18′*R,E)-12′-hydroxy-18′-phenyl-6′H,18′H-spiro[cyclobutane-1,9′-[10,17]methanobenzo[b]pyrido[1,2-f][1]oxa[5,6,9]triazacyclotridecine]-11′,13′-dione] | > 200 | 8.46
9 | O=C1c2c(O)c(=O)ccn2N2CN1C1(/C=C/COc3ccccc3[C@@H]2c2ccccc2)CCC1 (single isomer, unassigned) [Compound 106B, (18′*S,E)-12′-hydroxy-18′-phenyl-6′H,18′H-spiro[cyclobutane-1,9′-[10,17]methanobenzo[b]pyrido[1,2-f][1]oxa[5,6,9]triazacyclotridecine]-11′,13′-dione] | > 200 | < 7.00
